According to patent publication US20240391889A1, “ANTIMICROBIAL COMPOUNDS AND THE METHODS OF USE” (priority 2021, published 2024):
Converted amounts (≈) assume the structure as drawn. Numbered stars: 1 amine (or outer) side, 2 acyl side, 3 side chain; on linkers, the order of the positions; unused ones are H or OH. Square brackets hold non-standard residues; d marks the D form. Peptide text beside a SMILES is read from it. * marks the point of attachment. N(1S-cyclohexylethyl)Gly = C[C@H](NCC(=O)O)C1CCCCC1; Gly(Nα-4-Cl-benzyl) = O=C(O)CNCc1ccc(Cl)cc1; N(4-Br-benzyl)Gly = O=C(O)CNCc1ccc(Br)cc1; N(2-thienylmethyl)Gly = O=C(O)CNCc1cccs1; N(tridecyl)Gly = CCCCCCCCCCCCCNCC(=O)O; X2 = O=C(CN(c1cccc2ccccc12)[*:1])[*:2]; N(4-F-Bzl)Gly = O=C(O)CNCc1ccc(F)cc1; X1 = CC(c1ccccc1)N(CC(=O)[*:2])[*:1]; Gly(N-2-aminoethyl) = NCCNCC(=O)O; Myristoyl = CCCCCCCCCCCCCC(=O)*; NFurfurylGly = O=C(O)CNCc1ccco1; Gly(N(CH2)3NH2) = NCCCNCC(=O)O; Nphe = O=C(O)CNCc1ccccc1; NPrGly = CCCNCC(=O)O; Nlys = NCCCCNCC(=O)O; Sar = CNCC(=O)O

Tests used:
C. neoformans = format: cell-based, Cryptococcus neoformans; conditions: 72 h
Excerpt: (§1) This screening led to the discovery of RMG9-11 (FIG. 2C). The minimum inhibitory concentration (MIC) of resynthesized RMG9-11 was initially determined against C. albicans, C. neoformans, and the ESKAPE bacteria via CSLI guidelines (CLSI. Methods for Dilution Antimicrobial Susceptibility Tests for Bacteria That Grow Aerobically, 11th Edition. Clinical and Laboratory Standards Institute (2018); CLSI. Reference method for broth dilution antifungal susceptibility testing of yeasts; approved standard-third edition; CLSI document M27-A3. Clinical and Laboratory Standards Institute (2008)). […] C. albicans clinical isolates include a reference strain (M1), fluconazole susceptible strains (M4 and M6), and fluconazole resistant strains (M2, M3, M5, and M7). ATCC 64124 is multidrug resistant C. albicans strain that is resistant to amphotericin B, fluconazole, caspofungin, and flucytosine. All MICs were performed under CSLI guidelines in triplicate on at least three different days.
(§2) The minimum inhibitory concentration (MIC) of peptoids against fungal pathogens C. albicans and C. neoformans was determined following CLSI guidelines (Reference method for broth dilution antifungal susceptibility testing of yeasts; approved standard-third edition; CLSI document M27-A3.” CLSI. 2008.). Colonies were transferred from a streaked YPD plate to 0.85% saline to reach an OD530 between 0.18 and 0.25. This inoculant was diluted 1:100 into RPMI-MOPS and then further diluted 1:20 into RPMI-MOPS. 198 μL of inoculant was seeded into each well of a 96 well black-walled plate. 2-fold serial dilutions of 100× peptoid solutions were prepared in water and 2 μL of peptoid were added to each well in triplicate. […] MIC was defined as the lowest concentration of compound preventing fungal growth. This assay was repeated 3 times on separate days with each compound.

in vitro = format: cell-based; conditions: human, HepG2 hepatocellular carcinoma cells
Description: The mammalian cell lines that were tested (HepG2, 3T3, and HaCat) were incubated with RMG9-11 for 72 hours and cell viability was determined via mitochondrial activity using an MTT reduction assay where viable cells reduce MTT to formazan. Toxicity is reported as the concentration of the peptoid that results in a 50% reduction in viable cells, termed toxicity dose 50% or TD50. […] SR is defined as the TD50 divided by MIC and provides a measure of the therapeutic window for a compound. Typically for most lead compounds that would continue through development and optimization, a SR of 10 is preferred while an SR of 100 is more desirable for a compound moving into preclinical animal model evaluation.
Hepatocellular carcinoma (HepG2), mouse fibroblast (3T3), and human keratinocyte (HaCat) cells were cultured in Dulbeco modified eagle media (DMEM) containing 10% fetal bovine serum (FBS) and 1% penicillin, streptomycin, and glutamine (PSG) at 37° C. and 5% CO2. Cells were collected and adjusted to […] to 4×10^5 cells/mL in phenol-red free DMEM and plated (100 μL) 96 well plates. 2-fold serial dilutions of 10× peptoid (11.1 μL) were added to each well in triplicate. Water (vehicle) was used as a negative control. Plates were incubated at 37° C. in 5% CO2 for 72 hours. Thiazolyl blue tetrazolium bromide (MTT) was added to each well (5 mg/mL; 20 μL) and incubated for 3 hours. Media was removed, DMSO (100 μL) was added, and plates were incubated at 37° C. for 10 minutes. Plates were read on a SPECTRAMAX M5 plate reader (Abs. 570 nm). The concentration of compound resulting in a 50% reduction in growth compared to control (toxicity dose 50%; TD50) was determined using GRAFIT. This procedure was repeated three times on separate days.

C. albicans = format: cell-based, Candida albicans; conditions: 24 h
Excerpt: as §1, §2

| Compound | MIC C. neoformans (C. neoformans) [µg/mL] | MIC C. albicans (C. albicans) [µg/mL] | CC50 at 72 h (in vitro) [µg/mL] |
| --- | --- | --- | --- |
| CCCCCCCCCCCCCC(=O)NCC(=O)N(CCC)CC(=O)N(CC(=O)N(CCCCN)CC(=O)N(CC(=O)N(CC(=O)N(CCCN)CC(N)=O)Cc1cccs1)Cc1ccco1)C(C)c1ccccc1 (stereo not shown) [Compound 911-M21] (Myristoyl-G[NPrGly][X1][Nlys][NFurfurylGly][N(2-thienylmethyl)Gly][Gly(N(CH2)3NH2)]-NH2) | 3.13 to 6.25 | 6.25 (≈ 5.8 µM) | 135 ± 52.1 (≈ 125 µM) |
| CCCCCCCCCCCCCC(=O)NCC(=O)N(CCC)CC(=O)N(CC(=O)N(CCCCN)CC(=O)N(CC(=O)N(CC(=O)N(CCCN)CC(N)=O)c1cccc2ccccc12)Cc1ccco1)C(C)c1ccccc1 (stereo not shown) [Compound 911-M15] (Myristoyl-G[NPrGly][X1][Nlys][NFurfurylGly][X2][Gly(N(CH2)3NH2)]-NH2) | 3.13 to 6.25 | 6.25 (≈ 5.64 µM) | 122 ± 21.3 (≈ 111 µM) |
| CCCCCCCCCCCCCC(=O)NCC(=O)N(CCC)CC(=O)N(CC(=O)N(CCCCN)CC(=O)N(CC(=O)N(CC(=O)N(CCCN)CC(N)=O)Cc1ccc(F)cc1)Cc1ccco1)C(C)c1ccccc1 (stereo not shown) [Compound 911-M19] (Myristoyl-G[NPrGly][X1][Nlys][NFurfurylGly][N(4-F-Bzl)Gly][Gly(N(CH2)3NH2)]-NH2) | 3.13 (≈ 2.87 µM) | 6.25 (≈ 5.74 µM) | 106 ± 34.8 (≈ 97.6 µM) |
| CCCCCCCCCCCCCC(=O)NCC(=O)N(CCC)CC(=O)N(CC(=O)N(CCCCN)CC(=O)N(CC(=O)N(CC(=O)N(CCCN)CC(N)=O)C(C)c1ccccc1)Cc1ccco1)C(C)c1ccccc1 (stereo not shown) [Compound 911-M22] (Myristoyl-G[NPrGly][X1][Nlys][NFurfurylGly][X1][Gly(N(CH2)3NH2)]-NH2) | 3.13 (≈ 2.88 µM) | 6.25 (≈ 5.76 µM) | 113 ± 41.9 (≈ 104 µM) |
| CCCCCCCCCCCCCNCC(=O)N(CCC)CC(=O)N(CC(=O)N(CCCCN)CC(=O)N(C)CC(=O)N(CC(=O)N(CCCN)CC(N)=O)Cc1ccccc1)C(C)c1ccccc1 (stereo not shown) [SAR 5] (H-[N(tridecyl)Gly][NPrGly][X1][Nlys][Sar][Nphe][Gly(N(CH2)3NH2)]-NH2) |  | 12.5 to 25 | 157 ± 10.1 (≈ 160 µM) |
| CCCCCCCCCCCCCNCC(=O)N(CCC)CC(=O)N(CC(=O)N(CCCCN)CC(=O)N(CC(=O)N(C)CC(=O)N(CCCN)CC(N)=O)Cc1ccco1)C(C)c1ccccc1 (stereo not shown) [SAR 6] (H-[N(tridecyl)Gly][NPrGly][X1][Nlys][NFurfurylGly][Sar][Gly(N(CH2)3NH2)]-NH2) |  | 25 (≈ 25.8 µM) | 156 ± 4.7 (≈ 161 µM) |
| CCCCCCCCCCCCCC(=O)NCC(=O)N(CCN)CC(=O)N(CC(=O)N(CCCCN)CC(=O)N(CC(=O)N(CC(=O)N(CCCN)CC(N)=O)Cc1ccccc1)Cc1ccco1)[C@@H](C)C1CCCCC1 [Compound 911-M12] (Myristoyl-G[Gly(N-2-aminoethyl)][N(1S-cyclohexylethyl)Gly][Nlys][NFurfurylGly][Nphe][Gly(N(CH2)3NH2)]-NH2) | 3.13 (≈ 2.9 µM) | 6.25 (≈ 5.8 µM) | 145 ± 35 (≈ 134 µM) |
| CCCN(CC(=O)N(CC(=O)N(CCCCN)CC(=O)N(CC(=O)N(CC(=O)N(CCCN)CC(N)=O)Cc1ccccc1)Cc1ccco1)C(C)c1ccccc1)C(=O)CNC (stereo not shown) [SAR 1] (H-[Sar][NPrGly][X1][Nlys][NFurfurylGly][Nphe][Gly(N(CH2)3NH2)]-NH2) |  | >100 | > 200 |

Further lines, with some results ahead:

| MIC C. neoformans (C. neoformans) [µg/mL] | MIC C. albicans (C. albicans) [µg/mL] | Compound | CC50 at 72 h (in vitro) [µg/mL] |
| --- | --- | --- | --- |
|  | 6.25 (≈ 6.34 µM) | CCCCCCCCCCCCCNCC(=O)N(CCC)CC(=O)N(CC(=O)N(C)CC(=O)N(CC(=O)N(CC(=O)N(CCCN)CC(N)=O)Cc1ccccc1)Cc1ccco1)C(C)c1ccccc1 (stereo not shown) [SAR 4] (H-[N(tridecyl)Gly][NPrGly][X1][Sar][NFurfurylGly][Nphe][Gly(N(CH2)3NH2)]-NH2) | 61.8 ± 16.1 (≈ 62.7 µM) |
| 1.56 (≈ 1.47 µM) | 6.25 to 12.5 | CCCCCCCCCCCCCNCC(=O)N(CCC)CC(=O)N(CC(=O)N(CCCCN)CC(=O)N(CC(=O)N(CC(=O)N(CCCN)CC(N)=O)Cc1ccccc1)Cc1ccco1)Cc1ccc(Cl)cc1 [Compound 911-M5] (H-[N(tridecyl)Gly][NPrGly][Gly(Nα-4-Cl-benzyl)][Nlys][NFurfurylGly][Nphe][Gly(N(CH2)3NH2)]-NH2) | 114 ± 32.5 (≈ 108 µM) |
| 1.56 to 3.13 | 6.25 (≈ 5.64 µM) | CCCCCCCCCCCCCNCC(=O)N(CCC)CC(=O)N(CC(=O)N(CCCCN)CC(=O)N(CC(=O)N(CC(=O)N(CCCN)CC(N)=O)Cc1ccccc1)Cc1ccco1)Cc1ccc(Br)cc1 [Compound 911-M6] (H-[N(tridecyl)Gly][NPrGly][N(4-Br-benzyl)Gly][Nlys][NFurfurylGly][Nphe][Gly(N(CH2)3NH2)]-NH2) | 108 ± 13.6 (≈ 97 µM) |
| 1.56 (≈ 1.49 µM) | 3.13 to 6.25 | CCCCCCCCCCCCCNCC(=O)N(CCC)CC(=O)N(CC(=O)N(CCCCN)CC(=O)N(CC(=O)N(CC(=O)N(CCCN)CC(N)=O)Cc1ccccc1)Cc1ccco1)[C@@H](C)C1CCCCC1 [Compound 911-M11] (H-[N(tridecyl)Gly][NPrGly][N(1S-cyclohexylethyl)Gly][Nlys][NFurfurylGly][Nphe][Gly(N(CH2)3NH2)]-NH2) | 82.5 ± 11.5 (≈ 78.6 µM) |
| 1.56 (≈ 1.49 µM) | 6.25 (≈ 5.97 µM) | CCCCCCCCCCCCCNCC(=O)N(CCC)CC(=O)N(CC(=O)N(CCCCN)CC(=O)N(CC(=O)N(CC(=O)N(CCCN)CC(N)=O)Cc1ccccc1)Cc1ccco1)Cc1ccc(F)cc1 [Compound 911-M4] (H-[N(tridecyl)Gly][NPrGly][N(4-F-Bzl)Gly][Nlys][NFurfurylGly][Nphe][Gly(N(CH2)3NH2)]-NH2) | 120 ± 36.9 (≈ 114 µM) |
|  | 12.5 (≈ 12.3 µM) | CCCCCCCCCCCCCNCC(=O)N(C)CC(=O)N(CC(=O)N(CCCCN)CC(=O)N(CC(=O)N(CC(=O)N(CCCN)CC(N)=O)Cc1ccccc1)Cc1ccco1)C(C)c1ccccc1 (stereo not shown) [SAR 2] (H-[N(tridecyl)Gly][Sar][X1][Nlys][NFurfurylGly][Nphe][Gly(N(CH2)3NH2)]-NH2) | 83.9 ± 5.7 (≈ 82.6 µM) |
|  | 50 (≈ 52.5 µM) | CCCCCCCCCCCCCNCC(=O)N(CCC)CC(=O)N(C)CC(=O)N(CCCCN)CC(=O)N(CC(=O)N(CC(=O)N(CCCN)CC(N)=O)Cc1ccccc1)Cc1ccco1 [SAR 3] (H-[N(tridecyl)Gly][NPrGly][Sar][Nlys][NFurfurylGly][Nphe][Gly(N(CH2)3NH2)]-NH2) | 194 ± 7.5 (≈ 204 µM) |
|  | 6.25 (≈ 6.04 µM) | CCCCCCCCCCCCCNCC(=O)N(CCC)CC(=O)N(CC(=O)N(CCCCN)CC(=O)N(CC(=O)N(CC(=O)N(CCCN)CC(N)=O)Cc1ccccc1)Cc1ccco1)Cc1cccs1 [Compound 911-M8] (H-[N(tridecyl)Gly][NPrGly][N(2-thienylmethyl)Gly][Nlys][NFurfurylGly][Nphe][Gly(N(CH2)3NH2)]-NH2) | 108 ± 34.6 (≈ 104 µM) |
| 1.56 (≈ 1.52 µM) | 6.25 (≈ 6.07 µM) | CCCCCCCCCCCCCNCC(=O)N(CCC)CC(=O)N(CC(=O)N(CCCCN)CC(=O)N(CC(=O)N(CC(=O)N(CCCN)CC(N)=O)Cc1ccccc1)Cc1ccco1)Cc1ccccc1 [Compound 911-M3] (H-[N(tridecyl)Gly][NPrGly][Nphe][Nlys][NFurfurylGly][Nphe][Gly(N(CH2)3NH2)]-NH2) | 87.5 ± 10.8 (≈ 85 µM) |
|  | 6.25 (≈ 6.25 µM) | CCCCCCCCCCCCCNCC(=O)N(CCC)CC(=O)N(CC(=O)N(CCCCN)CC(=O)N(CC(=O)N(CC(=O)N(C)CC(N)=O)Cc1ccccc1)Cc1ccco1)C(C)c1ccccc1 (stereo not shown) [SAR 7] (H-[N(tridecyl)Gly][NPrGly][X1][Nlys][NFurfurylGly][Nphe][Sar]-NH2) | 57.7 ± 11 (≈ 57.7 µM) |
